According to article PMC6895180 (Nature Communications, 2019):
Values joined by “and” are separate entries in the source; they are usually repeats but may differ in a detail not shown here. Identical values can stand only once.

Tests used:
[1] = test system: T. b. brucei AnTAR1.1 PPYRE9; test: Mouse model of stage 2 HAT (BLI, parasitaemia, SL-RNA qPCR); format: in vivo; settings: for BLI of the head region, RLU data: individual animals
Experimental: […] Treatment was initiated at 21 dpi. […] Mice were injected i.p. with […] of D-luciferin and anaesthetised using isoflurane. The luminescent signal was acquired from both the dorsal and ventral side of the animals. […] Animals subjected to the different treatment schemes (from 4 wpi) were additionally imaged over a 5 min exposure time for enhanced sensitivity. […] Tissues were weighed and RNA was extracted using the RNeasy Plus Mini Kit (Qiagen) according to the manufacturer’s recommendations. […] A list of primers used is provided in the Supplementary Methods section of the Supplementary Information. BLI images from the IVIS Spectrum In Vivo Imaging System (Perkin Elmer) were analysed using LivingImage v4.3.1. SoftWoRx suite 2.0 for microscopy (image deconvolution), then processing using the Fiji software.

T. brucei NY-SM cells = test: RNA quantification (total RNA, RT-qPCR of SL-RNA, 18S rRNA, TERT); format: cell-based, Trypanosoma brucei; settings: for RNA Yield: RNA Content: Control 1.00; for RNA Yield: 18S rRNA / RNA Yield: SL-RNA / RNA Yield: TERT: Control about 1
Experimental: After 24 h, the cells were harvested and washed with PBS. […] RNA was extracted using the QIAamp RNA Blood Mini Kit (Qiagen). Total RNA yields were determined using both Nanodrop 2000 spectrometry and Qubit fluorimetric RNA content analysis. Additionally, specific transcripts in the RNA pool were quantified using RT-qPCR targeting the SL-RNA, 18S rRNA and transcripts encoding the telomerase reverse transcriptase (TERT)[28],[56]. A list of primers used is provided in the Supplementary Methods section of the Supplementary Information.

[2] = oral 6.25 mg kg^−1 s.i.d. for 5 days
[3] = oral 12.5 mg kg^−1 s.i.d. for 5 days
[4] = oral 25 mg kg^−1 s.i.d. for 5 days

Nc1ncnc2c1ccn2[C@@H]1O[C@H](CO)C[C@H]1O [Compound 9, 3’-deoxytubercidin]
RLU data, individual mice ([1]; 25 mg/kg BID, 4 wpi): 134400 RLU and 112900 RLU | RLU data, individual mice ([1]; 25 mg/kg BID, 5 wpi): 112900 RLU and 115900 RLU | RLU data, individual mice ([1]; 25 mg/kg BID, 6 wpi): 102800 RLU and 99010 RLU | RLU data, individual mice ([1]; 25 mg/kg BID, 7 wpi): 102400 RLU and 91660 RLU | RLU data, individual mice ([1]; 25 mg/kg BID, 8 wpi): 110100 RLU and 102600 RLU | RLU data, individual mice ([1]; 25 mg/kg BID, 9 wpi): 102800 RLU and 96280 RLU | RLU data, individual mice ([1]; 25 mg/kg BID, 11 wpi): 72280 RLU and 73020 RLU | RLU data, individual mice ([1]; 25 mg/kg BID, 12 wpi): 82420 RLU and 78930 RLU | RLU data, individual mice ([1]; 25 mg/kg BID, 14 wpi): 77680 RLU and 76600 RLU | RLU data, individual mice ([1]; 25 mg/kg SID, 3 wpi): 2495000 RLU and 617400 RLU and 13720000 RLU | RLU data, individual mice ([1]; 25 mg/kg SID, 4 wpi): 173900 RLU and 151500 RLU and 120200 RLU | RLU data, individual mice ([1]; 25 mg/kg SID, 5 wpi): 135900 RLU and 123400 RLU and 110100 RLU | RLU data, individual mice ([1]; 25 mg/kg SID, 6 wpi): 109500 RLU and 97640 RLU and 94120 RLU | RLU data, individual mice ([1]; 25 mg/kg SID, 7 wpi): 98810 RLU and 105800 RLU and 87010 RLU | RLU data, individual mice ([1]; 25 mg/kg SID, 8 wpi): 114800 RLU and 132100 RLU and 110100 RLU | RLU data, individual mice ([1]; 25 mg/kg SID, 9 wpi): 104700 RLU and 110500 RLU and 91280 RLU | RLU data, individual mice ([1]; 25 mg/kg SID, 11 wpi): 73650 RLU and 88470 RLU and 81640 RLU | RLU data, individual mice ([1]; 25 mg/kg SID, 12 wpi): 90290 RLU and 88590 RLU and 87820 RLU | RLU data, individual mice ([1]; 25 mg/kg SID, 14 wpi): 78620 RLU and 86010 RLU and 72810 RLU | BLI of the head region, RLU data ([1]; 3 wpi (start of treatment, 21 dpi)): 48700000 RLU and 33400000 RLU | BLI of the head region, RLU data ([1]; 4 wpi): 98400 RLU and 114000 RLU | BLI of the head region, RLU data ([1]; 5 wpi): 100000 RLU and 105000 RLU | BLI of the head region, RLU data ([1]; 6 wpi): 109000 RLU and 110000 RLU | BLI of the head region, RLU data ([1]; 7 wpi): 99500 RLU and 92000 RLU | BLI of the head region, RLU data ([1]; 8 wpi): 107000 RLU and 96700 RLU | BLI of the head region, RLU data ([1]; 9 wpi): 90800 RLU and 104000 RLU | BLI follow-up of surviving mice up to 14 wpi ([1]; mouse, in vivo): did not reveal any signs of relapse | bioluminescent imaging (BLI) [1, 2]: total clearance in all organs including the CNS | blood parasitaemia up to 9 wpi [1, 2]: negative blood parasitaemia | bioluminescent imaging (BLI) [1, 3]: total clearance in all organs including the CNS | blood parasitaemia up to 9 wpi [1, 3]: negative blood parasitaemia | bioluminescent imaging (BLI) ([1]; oral 25 mg kg^−1 b.i.d. for 5 days): total clearance of all organs, including the CNS | blood parasitaemia and survival at 9 wpi ([1]; oral 25 mg kg^−1 b.i.d. for 5 days from 21 dpi): negative blood parasitaemia and survived the pre-set endpoint | bioluminescent imaging (BLI) [1, 4]: total clearance in all organs including the CNS | blood parasitaemia up to 9 wpi [1, 4]: negative blood parasitaemia | parasite burdens in brain, spleen and fat by SL-RNA qPCR ([1]; tissues collected at 121 dpi): complete absence of parasite burdens | luminescent signal in the head region ([1]; to levels similar to a non-infected control mouse): rapid decline of the signal | RNA Yield: RNA Content (T. brucei NY-SM cells; 1.4 nM): 1.35 and 1.46 | RNA Yield: 18S rRNA (T. brucei NY-SM cells; 1.4 nM): 0.9222 and 0.9324 and 0.9996 and 1.001 | RNA Yield: SL-RNA (T. brucei NY-SM cells; 1.4 nM): 0.789 and 0.7785 and 0.978 and 0.9385 | RNA Yield: TERT (T. brucei NY-SM cells; 1.4 nM): 0.9232 and 0.9182 and 1.015 and 1.009 | RNA Yield: RNA Content (T. brucei NY-SM cells; 3.5 nM): 0.81 and 1.07 | RNA Yield: 18S rRNA (T. brucei NY-SM cells; 3.5 nM): 0.9119 and 1.014 and 1.009 and 1.044 | RNA Yield: SL-RNA (T. brucei NY-SM cells; 3.5 nM): 0.7939 and 0.7953 and 1.021 and 1.016 | RNA Yield: TERT (T. brucei NY-SM cells; 3.5 nM): 0.9429 and 0.9282 and 1.046 and 1.035 | RNA Yield: RNA Content (T. brucei NY-SM cells; 7 nM): 0.50 and 0.86 | RNA Yield: 18S rRNA (T. brucei NY-SM cells; 7 nM): 1.036 and 1.037 | RNA Yield: SL-RNA (T. brucei NY-SM cells; 7 nM): 1.052 and 1.049 | RNA Yield: TERT (T. brucei NY-SM cells; 7 nM): 1.046 and 1.042 | impact on RNA synthesis (T. brucei NY-SM cells; 24 h, various concentrations): absence of a major impact on the total RNA pool and the levels of specific transcripts
